Laboratory results: US11045745B2, “Reactive extraction of water” (University of Pittsburgh—Of the Commonwealth System of …, priority 2017, dated 2021)
Marks after values point to notes of the source that are not given here.

What was measured:
Format in all cases: physicochemical
[1] = Solubility in water (remark on sample preparation)
Description: (§1) This should not affect the measured hydration equilibrium greatly though since water is in such high excess. From Examples 2-2 to 2-5, the tunability of the hydration constant by altering the substituent on the benzyl ring is readily apparent.

[2] = Ketone hydration to diol equilibrium constant by room temperature NMR (Technique 1); details: for KH,app at 20 ± ° C. (1H) / KH,app at 20 ± ° C. (19F): d6-DMSO/H2O (1/1, mol/mol); for KH,app at 20 ± ° C. (1H): 1H NMR; for KH,app at 20 ± ° C. (19F): 19F NMR
Method: (§2) Ketone hydration to diol equilibrium constants (KH) and thermodynamic parameters for Example compounds were measured by NMR by adapting techniques from the literature [Bushman et al., Berichte der Bunsengesellschaft für physikalische Chemie, 84: 41-44 (1980); Greenzaid et al., J. Amer. Chem. Soc. 89: 749-756 (1967); and R. Stewart and J. D. Van Dyke, Can. J. Chem. 50: 1992-1999 (1972)] using either Technique 1 (IIa) or Technique 2 (IIb), further deviations to the general methods are noted with those Examples. D2O concentration was minimized to reduce the isotope effect (˜20% according to Bushman 1980).
(§3) The conversion from ketone to diol results in an upfield change in nuclear chemical shift. This change in nuclear resonance frequency can then be used to distinguish between ketone and diol peaks in the NMR spectrum. Since area integration of NMR peaks is directly related to the number of atoms resonating at that frequency, the area ratio between diol and ketone peaks can be used to calculate equilibrium constants. Assuming water is in high excess relative to the ketone its activity can be treated as unity resulting in the KH being only dependent on the relative peak integration ratio of diol/ketone:
In many Examples, only a single resonance for each species was available for to determine the diol/ketone ratio. Where available equilibrium constants were calculated by averaging multiple resonance together normalized by number of hydrogens associated with each of them.
Due to the insolubility of some ketones in water, DMSO was used as a co-solvent at 50% by mole. Equilibrium constants obtained with DMSO as a co-solvent are only apparent constants (KH,app) since this alters the activities of the compounds relative to a pure water solvent. […] J. Chem. 50: 1992-1999 (1972)].
In a volumetric flask, ketones were dissolved to a concentration of approximately 0.5 M in 50 mol % d^6-DMSO/H2O. Solutions were left to equilibrate overnight then transferred to an NMR tube for analysis. Solutions were measured by ^1H NMR at (400 MHz) or ^19F NMR (376 MHz) at ambient temperature (20±1° C.).
as §1

[3] = Ketone hydration equilibrium and thermodynamic parameters by variable temperature NMR (Technique 2), van't Hoff fit; details: for ΔG ° / ΔH ° / −TΔS °: van't Hoff fit; for KH at 25° C. (KH,app): apparent constant
Method: as §2, §3
For a select set of compounds a series of variable temperature NMR measurements (IIB: Technique 2) were made to extract reaction standard enthalpy)(ΔH°) and entropy(ΔS°) contributions to free energy of hydration)(ΔG°). Equilibrium constants versus temperature data were fit to the van't Hoff equation to determine ΔH°, ΔS°, and ΔG°; changes in heat capacity were assumed to be negligible:
In a volumetric flask (1.00, 2.00, or 10.00 mL) ketones were dissolved to a concentration of approximately 0.5 M in solvents composed of either D2O/H2O (5/95, v/v; method 2a) or d^6-DMSO/DMSO/H2O (10/40/50 by moles; method 2b). The solution was left to equilibrate at room temperature overnight then transferred to a standard NMR tube.
A series of 1H NMR (400 MHz)measurements were made with variable temperature control (0.1° C. precision) ranging from 25-65° C., typically in 10° C. increments. At each increment once the temperature had stabilized to within ±0.2° C. of the goal, samples were equilibrated for 5 minutes prior to the measurement.
The van't Hoff equation was then fit to a plot of KH vs. temperature; energy standard deviation were calculated from the fit of the equation to the raw data.
Examples 2-6 and 2-11 were prepared using variations to the standard procedure. Example 2-6 was prepared with a concentration of 50 mM, so that it was soluble in water. For Example 2-11, a small amount of enol was also observed (about 0.08 relative to ketone). To account for this, we calculated KH for Example 2-11 as diol/(ketone+enol), assuming enol formation from the ketone is reversible.

SMILES | KH,app at 20 ± ° C. (19F) [2] | KH at 25° C. ([3]; D2O/H2O (5/95, v/v)) | ΔG ° ([3]; D2O/H2O (5/95, v/v)) [kcal/mol] | ΔH ° ([3]; D2O/H2O (5/95, v/v)) [kcal/mol] | −TΔS ° ([3]; D2O/H2O (5/95, v/v)) [kcal/mol] | also measured
CC(=O)C(C)(C)[N+](=O)[O-] [Example 2-1, 3-methyl-3-nitrobutan-2-one] |  |  |  |  |  | solubility in water [1]: low solubility in water; KH,app at 20 ± ° C. ([2]; D2O/H2O (5/95, v/v), 23 mM): 0.22
COc1ccc(C(=O)C(F)(F)F)cc1 [Example 2-3] | 23 |  |  |  |  | KH,app at 20 ± ° C. (1H) [2]: 21
O=C(c1ccc(F)cc1)C(F)(F)F [Example 2-4] | 500 (^19F) |  |  |  |  | 
O=C(c1ccccc1)C(F)(F)F [Example 2-5] | 370 (^19F) |  |  |  |  | 
CC(=O)C(C)(C)C#N [Example 2-6] |  | 0.063 | 1.63 ± 0.48 | -5.86 ± 0.359 | 7.48 ± 0.335 | 
O=C1CCCCC1F (stereo not drawn) [Example 2-8] |  |  |  |  |  | KH at 25° C. (KH,app) ([3]; DMSO/H2O (1/1, mol/mol)): 0.52^a; ΔG ° ([3]; DMSO/H2O (1/1, mol/mol)): 0.96 ± 0.17 kcal/mol; ΔH ° ([3]; DMSO/H2O (1/1, mol/mol)): -5.35 ± 0.096 kcal/mol; −TΔS ° ([3]; DMSO/H2O (1/1, mol/mol)): 6.31 ± 0.14 kcal/mol
O=C(CF)CF [Example 2-9] |  | 27 | -1.94 ± 0.24 | -7.5 ± 0.17 | 5.57 ± 0.17 | 

Now from value to molecule, other results behind:

KH,app at 20 ± ° C. (19F) [2] | KH at 25° C. ([3]; D2O/H2O (5/95, v/v)) | ΔG ° ([3]; D2O/H2O (5/95, v/v)) [kcal/mol] | ΔH ° ([3]; D2O/H2O (5/95, v/v)) [kcal/mol] | −TΔS ° ([3]; D2O/H2O (5/95, v/v)) [kcal/mol] | SMILES | also measured
3.3 |  |  |  |  | CC(F)(F)C(=O)c1ccccc1 [Example 2-2, 2,2-difluoro-1-phenyl-1-propanone] | KH,app at 20 ± ° C. (1H) [2]: 2.8
 | 2.5 | -0.526 ± 0.359 | -5.98 ± 0.359 | 5.45 ± 0.359 | CC(=O)C(C)=O [Example 2-10] | 
 | 1.5 | -0.263 ± 0.12 | -5.47 ± 0.12 | 5.21 ± 0.12 | CCC(=O)C(C)=O [Example 2-11] | KH at 25° C. (KH,app) ([3]; DMSO/H2O (1/1, mol/mol)): 0.45^a; ΔG ° ([3]; DMSO/H2O (1/1, mol/mol)): 0.48 kcal/mol; ΔH ° ([3]; DMSO/H2O (1/1, mol/mol)): -5.74 kcal/mol; −TΔS ° ([3]; DMSO/H2O (1/1, mol/mol)): 6.21 kcal/mol; enol observed relative to ketone ([3]; NMR): about 0.08
